In patent US10463651B2, “3-(1H-pyrrolo[3,2-C]pyridin-2-YL)-1H-indazoles and therapeutic uses thereof” (Samumed, LLC, priority 2015, dated 2019):

Assays:
Type in all cases: cell-based
[1] = system: primary human fibroblasts derived from IPF patients (LL29 cells) treated with TGF-β1; assay: Inhibition of the fibrotic process (αSMA staining) in TGF-β1-treated fibroblasts; settings: Fibroblast, 96 h; for EC50: % αSMA-positive LL29 cells, TGF-β1 20 ng/mL, 4 days; for inhibition at 10 µM: read-out: percent inhibition at 10 μM
In short: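 LL29 fibroblasts from IPF patients, 1,500 cells/well in F12 with 1% FBS, stimulated with TGF-β1; TGF-β1 plus DMSO wells as controls. Incubation 4 days, then SYTOX green 1 μM final for 30 min at room temperature. Fibrotic response read as αSMA staining.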

[2] = system: IL-6 (THP-1 cells); assay: IL-6 inhibition in LPS-stimulated THP-1 cells (HTRF); settings: Homo sapiens; for EC50: IL6 by HTRF, THP-1 cells, 500 ng/mL LPS, 22 hours; for inhibition at 10 µM: THP-1, read-out: percent inhibition at 10 M
In short: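 THP-1 cells, pre-cultured 24 h in 1% FBS medium, treated with compound 2 h at 37 °C, then stimulated with 500 ng/mL LPS for 22 h. Secreted IL-6 measured by HTRF as the 665/620 nm ratio. Values normalized to DMSO; EC50 from four-parameter fit, duplicates.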

[3] = system: Wnt activity (Sp5-Luc reporter, SW480 colon carcinoma cells); assay: Screening assay for Wnt activity (Sp5-Luc reporter gene assay in SW480 cells); settings: Homo sapiens; for EC50: Sp5-Luc reporter, SW480 cells, incubated overnight; for inhibition at 10 µM: SW480, read-out: percent inhibition at 10 μM
In short: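 SW480 colon carcinoma cells stably carrying Sp5 promoter (eight TCF/LEF sites)-driven firefly luciferase, plated at 4,000 cells/well in 1% FBS medium and incubated overnight at 37° C. Luminescence normalised to DMSO-only cells; EC50 from four-parameter variable-slope nonlinear regression.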

[4] = system: SW480 colon cancer cells; assay: Cell viability assay (CellTiter-Blue); settings: Homo sapiens; for EC50: 96 h, SW480 cell viability, four days, CellTiter-Blue; for inhibition at 10 µM: SW480, 96 h, read-out: percent inhibition at 10 μM
In short: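 Fluorescence from resazurin reduced to resorufin by metabolically active cells was the read-out, taken after ~3 h with CellTiter-Blue.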

[5] = system: primary human mesenchymal stem cells (hMSCs); assay: Induction of chondrogenesis in hMSCs (Rhodamine B / Nile Red nodule imaging); settings: for EC50: concentration required to induce 50% levels of chondrogenesis vs TGF-β3 positive control, read-out: Conc (nM) of 50% TGF-β3 activity; for Emax: maximum activity relative to TGF-β3 (10 ng/mL) positive control, read-out: Max. Activity as % TGF-β3 activity
Excerpt: Representative compounds were screened using primary human mesenchymal stem cells (hMSCs) to determine their ability to induce chondrogenesis (process by which cartilage is developed).
Primary human mesenchymal stem cells (hMSCs) were purchased from Lonza (Walkersville, Md.) and expanded in Mesenchymal Stem Cell Growth Media (Lonza). Cells between passage 3 and 6 were used for the experiments.
Area of nodules in each well was normalized to the average of 3 DMSO treated wells on the same plate using Excel (Microsoft Inc.). The normalized averages (fold change over DMSO) of 2 or 3 replicate wells for each compound concentration were calculated. Due to solubility limitations of some of the compounds, curve fitting was incomplete leading to inaccurate EC50 determinations.
Using TGF-β3 as a positive control, the concentration of representative compounds required to induce 50% levels of chondrogenesis is reported. In addition, the maximum activity of each compound and the respective dose that each compound reached maximum chondrogenesis activity is reported.

EC50 [2]	EC50 [3]	EC50 [4]	EC50 [5]	SMILES	EC50 [1]	inhibition at 10 µM [1]	inhibition at 10 µM [4]	Emax [5]	inhibition at 10 µM [2]	inhibition at 10 µM [3]
9540 nM	60 nM	> 10000 nM	2700 nM	Nc1cncc(-c2ccc3[nH]nc(-c4cc5c(-c6ccccc6F)nccc5[nH]4)c3c2)c1 [Compound 59, 5-(3-(4-(2-Fluorophenyl)-1H-pyrrolo[3,2-c]pyridin-2-yl)-1H-indazol-5-yl)pyridin-3-amine]	> 10000 nM	46.6%	43.5%	70%		
48 nM	445 nM	296 nM	10 nM	CCC(=O)Nc1cncc(-c2ccc3[nH]nc(-c4cc5c(N6CCCCC6)nccc5[nH]4)c3c2)c1 [Compound 169, N-(5-(3-(4-(Piperidin-1-yl)-1H-pyrrolo[3,2-c]pyridin-2-yl)-1H-indazol-5-yl)pyridin-3-yl)propionamide]	149 nM			244%		
1080 nM	365 nM	186 nM	900 nM	O=C(Nc1cncc(-c2ccc3[nH]nc(-c4cc5c(-c6ccc(F)cc6)nccc5[nH]4)c3c2)c1)C1CCC1 [Compound 49, N-(5-(3-(4-(4-Fluorophenyl)-1H-pyrrolo[3,2-c]pyridin-2-yl)-1H-indazol-5-yl)pyridin-3-yl)cyclobutanecarboxamide]	115 nM			160%		
1840 nM	1480 nM	2300 nM		c1cc2[nH]c(-c3n[nH]c4ccc(-c5cncnc5)cc34)cc2cn1 [Compound 279, 5-(Pyrimidin-5-yl)-3-(1H-pyrrolo[3,2-c]pyridin-2-yl)-1H-indazole]	686 nM			22%		
40 nM	151 nM	358 nM	300 nM	CC(C)Nc1cncc(-c2ccc3[nH]nc(-c4cc5c(-c6cc(F)cc(CNS(C)(=O)=O)c6)nccc5[nH]4)c3c2)c1 [Compound 488, N-(3-Fluoro-5-(2-(5-(5-(isopropylamino)pyridin-3-yl)-1H-indazol-3-yl)-1H-pyrrolo[3,2-c]pyridin-4-yl)benzyl)methanesulfonamide]	125 nM			191%		
39 nM	50 nM	179 nM	2700 nM	O=C(Nc1cncc(-c2ccc3[nH]nc(-c4cc5c(-c6cccc(F)c6)nccc5[nH]4)c3c2)c1)C1CC1 [Compound 20, N-(5-(3-(4-(3-Fluorophenyl)-1H-pyrrolo[3,2-c]pyridin-2-yl)-1H-indazol-5-yl)pyridin-3-yl)cyclopropanecarboxamide]	167 nM			91%		
189 nM	150 nM	533 nM	900 nM	CCC(=O)Nc1cncc(-c2ccc3[nH]nc(-c4cc5cnccc5[nH]4)c3c2)c1 [Compound 253, N-(5-(3-(1H-Pyrrolo[3,2-c]pyridin-2-yl)-1H-indazol-5-yl)pyridin-3-yl) propionamide]	499 nM			259%		
103 nM	304 nM	500 nM	300 nM	Cc1ccncc1-c1ccc2[nH]nc(-c3cc4c(-c5cc(F)cc(CNS(C)(=O)=O)c5)nccc4[nH]3)c2c1 [Compound 481, N-(3-Fluoro-5-(2-(5-(4-methylpyridin-3-yl)-1H-indazol-3-yl)-1H-pyrrolo[3,2-c]pyridin-4-yl)benzyl)methanesulfonamide]	528 nM			267%		
86 nM	146 nM	562 nM	100 nM	Nc1cncc(-c2ccc3[nH]nc(-c4cc5c(-c6cccnc6)nccc5[nH]4)c3c2)c1 [Compound 87, 5-(3-(4-(Pyridin-3-yl)-1H-pyrrolo[3,2-c]pyridin-2-yl)-1H-indazol-5-yl)pyridin-3-amine]	113 nM			178%		
40 nM	111 nM	555 nM	10 nM	O=C(Nc1cncc(-c2ccc3[nH]nc(-c4cc5c(-c6cccnc6)nccc5[nH]4)c3c2)c1)C1CCC1 [Compound 105, N-(5-(3-(4-(Pyridin-3-yl)-1H-pyrrolo[3,2-c]pyridin-2-yl)-1H-indazol-5-yl)pyridin-3-yl)cyclobutanecarboxamide]	2420 nM			172%		
1090 nM	3500 nM	3680 nM		Cc1ccncc1-c1ccc2[nH]nc(-c3cc4c(N5CCN(C)CC5)nccc4[nH]3)c2c1 [Compound 229, 3-(4-(4-Methylpiperazin-1-yl)-1H-pyrrolo[3,2-c]pyridin-2-yl)-5-(4-methylpyridin-3-yl)-1H-indazole]	2980 nM			36%		
> 10000 nM	1240 nM	4020 nM		Cc1ncc(-c2ccc3[nH]nc(-c4cc5c(-c6ccncc6)nccc5[nH]4)c3c2)n1C [Compound 573, 5-(1,2-Dimethyl-1H-imidazol-5-yl)-3-(4-(pyridin-4-yl)-1H-pyrrolo[3,2-c]pyridin-2-yl)-1H-indazole]	9980 nM			36%	38.8%	
380 nM	790 nM	514 nM		c1cc2[nH]c(-c3n[nH]c4ccc(-c5cncc(CN6CCCC6)c5)cc34)cc2cn1 [Compound 266, 5-(5-(Pyrrolidin-1-ylmethyl)pyridin-3-yl)-3-(1H-pyrrolo[3,2-c]pyridin-2-yl)-1H-indazole]	1850 nM			26%		
> 10000 nM	> 10000 nM	> 10000 nM	900 nM	CS(=O)(=O)NCc1cc(F)cc(-c2nccc3[nH]c(-c4n[nH]c5ccc(-c6ccncc6)cc45)cc23)c1 [Compound 494, N-(3-Fluoro-5-(2-(5-(pyridin-4-yl)-1H-indazol-3-yl)-1H-pyrrolo[3,2-c]pyridin-4-yl)benzyl)methanesulfonamide]	> 10000 nM	0%	9.5%	66%	44.6%	19%
508 nM	1910 nM	438 nM		c1ncc(-c2ccc3[nH]nc(-c4cc5c(-c6ccoc6)nccc5[nH]4)c3c2)cn1 [Compound 335, 3-(4-(Furan-3-yl)-1H-pyrrolo[3,2-c]pyridin-2-yl)-5-(pyrimidin-5-yl)-1H-indazole]	349 nM			40%		
929 nM	520 nM	262 nM	900 nM	CCCC(=O)Nc1cncc(-c2ccc3[nH]nc(-c4cc5c(-c6ccc(F)cc6)nccc5[nH]4)c3c2)c1 [Compound 45, N-(5-(3-(4-(4-Fluorophenyl)-1H-pyrrolo[3,2-c]pyridin-2-yl)-1H-indazol-5-yl)pyridin-3-yl)butyramide]	263 nM			142%		
4530 nM	309 nM	227 nM		COc1cncc(-c2ccc3[nH]nc(-c4cc5c(-c6ccoc6)nccc5[nH]4)c3c2)c1 [Compound 692, 3-(4-(Furan-3-yl)-1H-pyrrolo[3,2-c]pyridin-2-yl)-5-(5-methoxypyridin-3-yl)-1H-indazole]	741 nM			20%		
> 10000 nM	> 10000 nM	> 10000 nM		CN1CCN(c2nccc3[nH]c(-c4n[nH]c5ccc(-c6cncc(NC(=O)CC7CCNCC7)c6)cc45)cc23)CC1 [Compound 641]	9900 nM		20.9%	43%	28.7%	0%
3170 nM	3690 nM	3480 nM		CCCCC(=O)Nc1cncc(-c2ccc3[nH]nc(-c4cc5c(N6CCN(C)CC6)nccc5[nH]4)c3c2)c1 [Compound 243, N-(5-(3-(4-(4-Methylpiperazin-1-yl)-1H-pyrrolo[3,2-c]pyridin-2-yl)-1H-indazol-5-yl)pyridin-3-yl)pentanamide]	1830 nM			49%		
